27 compounds from patent US10940139B2, “Compounds that interact with the Ras superfamily for the treatment of cancers, inflammatory diseases, rasopathies, and fibrotic disease” (Shy Therapeutics LLC, priority 2017, dated 2021) can be followed below.

Structures are written as SMILES. Where two headings read alike, the source gives them in different places.

Assay in all cases: Ras GTP binding domain inhibition assay (labeled GTP)
In assay [1] the target is KRas G12D mutant protein (Homo sapiens (Human), UniProt P01116, G12D).
Chain of KRas G12D mutant protein (P01116-2 other isoform, or with tags, fused parts or gaps G12D): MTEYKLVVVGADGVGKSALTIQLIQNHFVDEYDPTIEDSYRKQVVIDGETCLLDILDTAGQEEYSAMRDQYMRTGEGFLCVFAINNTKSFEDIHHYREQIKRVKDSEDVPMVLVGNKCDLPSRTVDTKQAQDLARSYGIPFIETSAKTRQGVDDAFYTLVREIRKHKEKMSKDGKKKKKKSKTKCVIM
The target in assay [2] is KRas G12C mutant (Homo sapiens (Human), UniProt P01116, G12C). In a few lines:
(§1)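 Inhibition of labeled GTP binding is measured on immobilized His-KRas protein in Tris buffer pH 7.5 with 1 mM MgCl2 and 1 mM DTT.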

In assay [3] the target is KRas G12C/Q61H double mutant (Homo sapiens (Human), UniProt P01116, G12C/Q61H). The conditions noted are these: 20 μM compound. In a few lines:
as §1

Assay [4] concerns the target KRas G12D/Q61H double mutant (Homo sapiens (Human), UniProt P01116, G12D/Q61H). To be noted: for IC50: serial dilution, read-out: KRas G12D Q61H (classes E-H, IC50). In a few lines:
as §1

Assay [5] has as its target KRas wild type (Homo sapiens (Human), UniProt P01116). In a few lines:
as §1

Assay [6] has as its target KRas Q61H mutant (Homo sapiens (Human), UniProt P01116, Q61H). To be noted: 20 μM compound. In a few lines:
as §1

The mark [7] stands for this setting: 20 μM compound, read-out: % Inhibition at 20 μM KRas G12D.
The mark [8] stands for this setting: 20 μM compound, read-out: % Inhibition at 20 μM KRas G12C.
Setting [9] is: read-out: % Inhibition at 20 μM KRas G12C Q61H.
The mark [10] stands for this setting: 20 μM compound, read-out: % Inhibition at 20 μM KRas G12D Q61H.
The mark [11] stands for this setting: 20 μM compound, read-out: % Inhibition at 20 μM KRas wild type.
Where [12] appears, read: read-out: % Inhibition at 20 μM KRas Q61H.
Setting [13] is: 20 μM compound, KRas G12D, read-out: % Inhibition at 20 μM of K-Ras mutant and wild-type protein, KRas G12D.
Setting [14] is: 20 μM compound, KRas G12C, read-out: % Inhibition at 20 μM of K-Ras mutant and wild-type protein, KRas G12C.
Where [15] appears, read: KRas G12C/Q61H double mutant, read-out: % Inhibition at 20 μM of K-Ras mutant and wild-type protein, KRas G12C Q61H.
The mark [16] stands for this setting: 20 μM compound, KRas G12D/Q61H double mutant, read-out: % Inhibition at 20 μM of K-Ras mutant and wild-type protein, KRas G12D Q61H.
Setting [17] is: 20 μM compound, KRas wild type, read-out: % Inhibition at 20 μM of K-Ras mutant and wild-type protein, KRas wild type.
Where [18] appears, read: KRas Q61H, read-out: % Inhibition at 20 μM of K-Ras mutant and wild-type protein, KRas Q61H.
[19] abbreviates: 20 μM, read-out: KRas G12D % Inh.
Setting [20] is: 20 μM, read-out: KRas G12C % Inh.
Where [21] appears, read: 20 μM, read-out: KRas G12D Q61H % Inh.
The mark [22] stands for this setting: 20 μM, read-out: KRas wild type, % Inh.

Chain of KRas wild type (P01116-2 other isoform, or with tags, fused parts or gaps): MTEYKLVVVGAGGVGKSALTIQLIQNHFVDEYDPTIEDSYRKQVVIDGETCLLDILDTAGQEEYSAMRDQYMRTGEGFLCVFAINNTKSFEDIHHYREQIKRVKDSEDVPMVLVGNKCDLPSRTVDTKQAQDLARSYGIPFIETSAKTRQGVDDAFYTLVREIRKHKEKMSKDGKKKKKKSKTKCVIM
Chain of KRas G12C mutant (P01116-2 other isoform, or with tags, fused parts or gaps G12C): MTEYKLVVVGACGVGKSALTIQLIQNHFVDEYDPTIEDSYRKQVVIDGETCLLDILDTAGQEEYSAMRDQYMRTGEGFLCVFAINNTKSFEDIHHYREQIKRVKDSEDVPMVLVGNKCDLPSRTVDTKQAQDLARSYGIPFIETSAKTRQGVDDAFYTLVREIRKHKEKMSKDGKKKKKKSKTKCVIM
Chain of KRas G12C/Q61H double mutant (P01116-2 other isoform, or with tags, fused parts or gaps G12C/Q61H): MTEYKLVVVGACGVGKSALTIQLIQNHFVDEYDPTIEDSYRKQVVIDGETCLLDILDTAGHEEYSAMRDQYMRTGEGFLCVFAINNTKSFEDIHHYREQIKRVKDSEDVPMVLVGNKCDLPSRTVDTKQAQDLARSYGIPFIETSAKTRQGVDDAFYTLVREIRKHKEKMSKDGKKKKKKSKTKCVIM
Chain of KRas G12D/Q61H double mutant (P01116-2 other isoform, or with tags, fused parts or gaps G12D/Q61H): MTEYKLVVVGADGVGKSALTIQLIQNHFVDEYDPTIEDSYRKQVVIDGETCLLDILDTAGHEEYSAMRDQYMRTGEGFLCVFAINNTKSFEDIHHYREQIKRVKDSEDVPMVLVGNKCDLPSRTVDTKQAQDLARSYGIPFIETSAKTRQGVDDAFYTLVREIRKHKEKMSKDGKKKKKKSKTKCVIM
Chain of KRas Q61H mutant (P01116-2 other isoform, or with tags, fused parts or gaps Q61H): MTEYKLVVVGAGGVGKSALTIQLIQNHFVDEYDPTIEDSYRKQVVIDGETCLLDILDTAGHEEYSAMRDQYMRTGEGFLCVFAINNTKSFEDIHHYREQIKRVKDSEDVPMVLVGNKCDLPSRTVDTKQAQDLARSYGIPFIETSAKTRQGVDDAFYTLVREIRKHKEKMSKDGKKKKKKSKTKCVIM

Broadly, the IC50 is the point on the concentration scale where inhibition reaches its midpoint. For `COc1ccnc(-c2nc(O)c3ccsc3n2)c1` [drawing 2708], the inhibition at 20 µM lay in the range of 51 to 75% in assay [1] (setting [7]); 51 to 75% in assay [2] (setting [8]); 51 to 75% in assay [3] (setting [9]); 51 to 75% in assay [4] (setting [10]); 25 to 50% in assay [5] (setting [11]); 51 to 75% in assay [6] (setting [12]). In assay [4], the IC50 is 5 to 10 µM.
As for `O=C(O)c1cc2nc(-c3ccccn3)nc(O)c2s1` [drawing 2850], the inhibition at 20 µM in assay [1] (setting [7]), in assay [2] (setting [8]), in assay [3] (setting [9]), in assay [4] (setting [10]), in assay [5] (setting [11]) and in assay [6] (setting [12]) was 51 to 75% each time.
`CCC(C)c1csc2c(OC)nc(-c3ccccn3)nc12` (stereo not drawn) [drawing 3471]: the inhibition at 20 µM in assay [1] (setting [13]) was 25 to 50%; in assay [2] (setting [14]) it was 25 to 50%; in assay [3] (setting [15]), 51 to 75%; in assay [4] (setting [16]), 51 to 75%; in assay [5] (setting [17]) it was 25 to 50%; in assay [6] (setting [18]) it was 51 to 75%.
Consider `Nc1nc(-c2ccccn2)nc2ccsc12` [drawing 2834], for which the inhibition at 20 µM in assay [1] (setting [7]) was in the range of 1 to 25%; in assay [2] (setting [8]), 25 to 50%; in assay [3] (setting [9]), 25 to 50%; in assay [4] (setting [10]), 25 to 50%; in assay [5] (setting [11]), 1 to 25%; in assay [6] (setting [12]), 51 to 75%.
Take `COCCNc1nc(-c2ccccn2)nc2c1c(-c1ccccc1)nn2-c1ccccn1` [drawing 3538]: the inhibition at 20 µM in assay [1] (setting [13]) was in the range of 51 to 75%; in assay [2] (setting [14]), 51 to 75%; in assay [3] (setting [15]), 76 to 100%; in assay [4] (setting [16]), 51 to 75%; in assay [5] (setting [17]) it was 51 to 75%; in assay [6] (setting [18]), 51 to 75%.
As to `N#Cc1ccc(COCC(=O)Nc2nc(-c3ccccn3)nc3sccc23)cc1` [drawing 2799], the inhibition at 20 µM in assay [1] (setting [7]) is 76 to 100%; in assay [2] (setting [8]), 25 to 50%; in assay [3] (setting [9]) it was 76 to 100%; in assay [4] (setting [10]), 25 to 50%; in assay [5] (setting [11]) it was 25 to 50%; in assay [6] (setting [12]), 76 to 100%. Further, in assay [4], the half-inhibitory concentration (IC50) fell in the range of 11 to 30 µM.
On to `CC(C)Cc1csc2c(O)nc(-c3ccccn3)nc12` [drawing 3494], for which the inhibition at 20 µM in assay [1] (setting [13]) lay within 51 to 75%; in assay [2] (setting [14]), 25 to 50%; in assay [3] (setting [15]), 51 to 75%; in assay [4] (setting [16]), 51 to 75%; in assay [5] (setting [17]), 25 to 50%; in assay [6] (setting [18]) it was 76 to 100%.
Take `COc1ccnc(-c2nc(O)c3c(Cl)csc3n2)c1` [drawing 2800]: the inhibition at 20 µM was in the range of 51 to 75% in assay [1] (setting [7]); 25 to 50% in assay [2] (setting [8]); 76 to 100% in assay [3] (setting [9]); 51 to 75% in assay [4] (setting [10]); 51 to 75% in assay [5] (setting [11]); 76 to 100% in assay [6] (setting [12]). Besides, the IC50 in assay [4] lay in the range of 11 to 30 µM.
On to `Oc1nc(-c2ccccn2)nc2c(C3CCC3)csc12` [drawing 3478], for which the inhibition at 20 µM lay in the range of 51 to 75% in assay [1] (setting [13]); 25 to 50% in assay [2] (setting [14]); 51 to 75% in assay [3] (setting [15]); 51 to 75% in assay [4] (setting [16]); 25 to 50% in assay [5] (setting [17]); 51 to 75% in assay [6] (setting [18]).
`COc1ccc(CCC(=O)Nc2nnc(-c3ccccn3)[nH]2)cc1` [drawing 2469]: the inhibition at 20 µM in assay [1] (setting [19]) was in the range of 25 to 50%; in assay [2] (setting [20]), 25 to 50%; in assay [4] (setting [21]) it was 51 to 75%; in assay [5] (setting [22]), 25 to 50%.
Consider `O=C(Nc1nnc(-c2ccccn2)[nH]1)c1ccc2ccccc2n1` [drawing 2472], for which the inhibition at 20 µM in assay [1] (setting [19]) was in the range of 76 to 100%; in assay [2] (setting [20]), 25 to 50%; in assay [4] (setting [21]), 76 to 100%; in assay [5] (setting [22]) it was 51 to 75%.
Regarding `CC(O)CNc1nc(-c2ccccn2)nc2scc(-c3ccccc3)c12` (stereo not drawn) [drawing 2607], the inhibition at 20 µM in assay [1] (setting [19]) was in the range of 51 to 75%; in assay [2] (setting [20]) it was 1 to 25%; in assay [4] (setting [21]) it was 51 to 75%; in assay [5] (setting [22]), 25 to 50%.
As for `O=C(c1csc2c(O)nc(-c3ccccn3)nc12)N(CCO)CCOCCO` [drawing 2687], the inhibition at 20 µM in assay [1] (setting [7]) was in the range of 51 to 75%; in assay [2] (setting [8]), 51 to 75%; in assay [4] (setting [10]), 76 to 100%; in assay [5] (setting [11]), 25 to 50%.
`OCCNc1nc(-c2ccccn2)nc2scc(-c3ccccc3)c12` [drawing 2603]: the inhibition at 20 µM in assay [1] (setting [19]) lay within 51 to 75%; in assay [2] (setting [20]), 1 to 25%; in assay [4] (setting [21]), 25 to 50%; in assay [5] (setting [22]) it was 1 to 25%.
For `COC(=O)c1cc(NCc2nc(CC(C)C)no2)ccc1Cl` [drawing 2612], the inhibition at 20 µM was 51 to 75% in assay [1] (setting [19]), 25 to 50% in assay [2] (setting [20]), 51 to 75% in assay [4] (setting [21]) and 1 to 25% in assay [5] (setting [22]).
Consider `Cc1sc2nc(-c3ccccn3)nc(NCCCO)c2c1-c1ccccc1` [drawing 2610], for which the inhibition at 20 µM lay in the range of 51 to 75% in assay [1] (setting [19]), 51 to 75% in assay [2] (setting [20]), 51 to 75% in assay [4] (setting [21]) and 25 to 50% in assay [5] (setting [22]).
With `O=C(Nc1nc(-c2ccccn2)cs1)c1cccc(F)c1` [drawing 2567], the inhibition at 20 µM in assay [1] (setting [19]) lay within 51 to 75%; in assay [2] (setting [20]), 25 to 50%; in assay [4] (setting [21]) it was 51 to 75%; in assay [5] (setting [22]), 51 to 75%.
On to `COc1ccc(OCc2nc(CNCCc3nnc4n3CCC4)cs2)cc1` [drawing 2565], for which the inhibition at 20 µM in assay [1] (setting [19]) fell in the range of 51 to 75%; in assay [2] (setting [20]), 25 to 50%; in assay [4] (setting [21]), 51 to 75%; in assay [5] (setting [22]) it was 1 to 25%.
With `COc1cccc(C(=O)Nc2nc(-c3ccccn3)cs2)c1` [drawing 2580], the inhibition at 20 µM in assay [1] (setting [19]) was 51 to 75%; in assay [2] (setting [20]) it was 51 to 75%; in assay [4] (setting [21]), 51 to 75%; in assay [5] (setting [22]) it was 25 to 50%.
Regarding `O=C(c1ccn(-c2ccccc2)n1)N1CCCc2c(O)nc(-c3ccccn3)nc21` [drawing 2644], the inhibition at 20 µM lay within 51 to 75% in assay [1] (setting [19]), 25 to 50% in assay [2] (setting [20]), 76 to 100% in assay [4] (setting [21]) and 25 to 50% in assay [5] (setting [22]).
Regarding `O=c1nc(-c2ccccn2)[nH]c2scc(-c3ccccc3Cl)c12` [drawing 2585], the inhibition at 20 µM in assay [1] (setting [19]) fell in the range of 51 to 75%; in assay [2] (setting [20]), 25 to 50%; in assay [4] (setting [21]) it was 51 to 75%; in assay [5] (setting [22]) it was 25 to 50%.
Regarding `COCCNc1nc(-c2nccn2C)nc2sc(-c3ccccc3)c(-c3ccccc3)c12` [drawing 3535], the inhibition at 20 µM was 76 to 100% in assay [1] (setting [13]), 51 to 75% in assay [2] (setting [14]), 51 to 75% in assay [4] (setting [16]) and 1 to 25% in assay [5] (setting [17]).
Consider `O=C(c1csc2c(O)nc(-c3ccccn3)nc12)N1CCN(c2ccncc2)CC1` [drawing 2681], for which the inhibition at 20 µM in assay [1] (setting [7]) is 51 to 75%; in assay [2] (setting [8]), 25 to 50%; in assay [4] (setting [10]) it was 51 to 75%; in assay [5] (setting [11]) it was 51 to 75%.
Consider `O=C(c1ccc(=O)[nH]n1)N1CCCc2c(O)nc(-c3ccccn3)nc21` [drawing 2646], for which the inhibition at 20 µM in assay [1] (setting [7]) fell in the range of 51 to 75%; in assay [2] (setting [8]), 25 to 50%; in assay [4] (setting [10]), 25 to 50%; in assay [5] (setting [11]), 51 to 75%.
Turning to `Cc1cc(C(=O)Nc2nc(-c3ccccn3)cs2)no1` [drawing 2568], the inhibition at 20 µM in assay [1] (setting [19]) was in the range of 25 to 50%; in assay [2] (setting [20]), 25 to 50%; in assay [4] (setting [21]), 76 to 100%; in assay [5] (setting [22]) it was 25 to 50%.
As for `O=C(c1csc2c(O)nc(-c3ccccn3)nc12)N1CCOC(c2ccccc2F)C1` (stereo not drawn), the inhibition at 20 µM in assay [1] (setting [7]) lay within 51 to 75%; in assay [2] (setting [8]), 25 to 50%; in assay [4] (setting [10]), 25 to 50%; in assay [5] (setting [11]) it was 76 to 100%.
`O=C(Nc1nnc(-c2ccccn2)[nH]1)C1CC(=O)N(Cc2cccc(C(F)(F)F)c2)C1` (stereo not drawn) [drawing 2547]: the inhibition at 20 µM lay within 51 to 75% in assay [1] (setting [19]), 1 to 25% in assay [2] (setting [20]), 51 to 75% in assay [4] (setting [21]) and 25 to 50% in assay [5] (setting [22]).
